Target: Plasminogen activator inhibitor 1 (Homo sapiens, UniProt P05121)
Test: Inhibitory activity against plasminogen activator inhibitor 1 (PAI-1) was evaluated by inhibition of tissue plasminogen activator/PAI-1 complex formation in t-PA-induced fibrin clot lysis assay

Sequence of Plasminogen activator inhibitor 1 (P05121 whole entry): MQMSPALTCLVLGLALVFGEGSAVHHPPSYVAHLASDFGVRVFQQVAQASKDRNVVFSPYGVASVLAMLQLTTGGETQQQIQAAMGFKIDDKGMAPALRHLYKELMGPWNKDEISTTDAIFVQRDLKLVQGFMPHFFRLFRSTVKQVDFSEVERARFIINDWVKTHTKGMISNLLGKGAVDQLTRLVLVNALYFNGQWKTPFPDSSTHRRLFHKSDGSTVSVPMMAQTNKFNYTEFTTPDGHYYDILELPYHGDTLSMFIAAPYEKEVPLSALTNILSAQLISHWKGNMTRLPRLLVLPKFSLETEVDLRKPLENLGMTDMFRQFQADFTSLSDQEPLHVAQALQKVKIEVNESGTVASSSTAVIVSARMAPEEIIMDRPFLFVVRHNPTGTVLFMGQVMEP

Row | SMILES | IC50 [µM]
1 | COC(=O)/C(=C/c1sc2cc(OCc3ccccc3)c(OCc3ccccc3)cc2c1Oc1ccc(Cl)cc1)c1ccncc1 | 0.47
2 | O=C(O)/C(=C/c1sc2cc(OCc3ccc(-c4ccccc4)cc3)c(OCc3ccc(-c4ccccc4)cc3)cc2c1Oc1ccc2ncccc2c1)c1ccncc1 | 6.06
3 | O=C(O)/C(=C/c1sc2cc(OCc3ccc(-c4ccccc4)cc3)c(OCc3ccc(-c4ccccc4)cc3)cc2c1Oc1ccc(Cl)c(F)c1)c1ccncc1 | 2.28
4 | O=C(O)/C(=C/c1sc2cc(OCc3ccc(-c4ccccc4)cc3)c(OCc3ccc(-c4ccccc4)cc3)cc2c1Oc1ccc(Cl)nc1)c1ccncc1 | 2.07
5 | CN(C)CCSc1ccc(/C=c2\[nH]c(=O)/c(=C/c3ccccc3)[nH]c2=O)cc1 | 51
6 | COc1ccc(-c2ccc(COc3cc4sc(/C=C(/C(=O)O)c5ccncc5)c(Oc5ccc(Cl)cc5)c4cc3OCc3ccc(-c4ccc(OC)cc4)cc3)cc2)cc1 | 0.14
7 | O=C(O)/C(=C/c1sc2cc(OCc3ccccc3-c3ccccc3)c(OCc3ccccc3-c3ccccc3)cc2c1Oc1ccc(Cl)cc1)c1ccncc1 | 10.8
8 | Cc1cc(Oc2c(/C=C(/C(=O)O)c3ccncc3)sc3cc(OCc4ccc(-c5ccccc5)cc4)c(OCc4ccc(-c5ccccc5)cc4)cc23)cc(C)c1Cl | 1.09
9 | COc1ccc(/C=c2\[nH]c(=O)/c(=C/c3ccccc3)[nH]c2=O)cc1 | 59.4
10 | O=C(O)/C(=C/c1sc2cc(OCc3ccc(-c4ccccc4)cc3)c(OCc3ccc(-c4ccccc4)cc3)cc2c1Oc1ccc(F)c(F)c1)c1ccncc1 | 0.59
11 | CN(C)CCSc1ccc(/C=c2\[nH]c(=O)/c(=C/c3ccccc3)[nH]c2=O)s1 | 106
12 | O=C(O)/C(=C/c1sc2cc(OCc3ccc(-c4ccccc4)cc3)c(OCc3ccc(-c4ccccc4)cc3)cc2c1Oc1ccc(-n2ccnc2)cc1)c1ccncc1 | 2.91
13 | O=C(O)/C(=C/c1sc2cc(OCc3ccc(Cc4ccccc4)cc3)c(OCc3ccc(Cc4ccccc4)cc3)cc2c1Oc1ccc(Cl)cc1)c1ccncc1 | 0.27
14 | Cc1ccc(Oc2c(/C=C(/C(=O)O)c3ccncc3)sc3cc(OCc4ccc(-c5ccccc5)cc4)c(OCc4ccc(-c5ccccc5)cc4)cc23)cn1 | 2.48
15 | O=C(O)/C(=C/c1sc2cc(OCc3ccc(-c4ccccc4)cc3)c(OCc3ccc(-c4ccccc4)cc3)cc2c1Oc1cccnc1)c1ccncc1 | 2.4
16 | O=C(O)/C(=C/c1sc2cc(OCc3ccc(Sc4ccccc4)cc3)c(OCc3ccc(Sc4ccccc4)cc3)cc2c1Oc1ccc(Cl)cc1)c1ccncc1 | 0.039
17 | O=C(O)/C(=C/c1sc2cc(OCc3cccc(-c4ccccc4)c3)c(OCc3cccc(-c4ccccc4)c3)cc2c1Oc1ccc(Cl)cc1)c1ccncc1 | 0.22
18 | O=C(O)/C(=C/c1sc2cc(OCc3ccc(S(=O)(=O)c4ccccc4)cc3)c(OCc3ccc(S(=O)(=O)c4ccccc4)cc3)cc2c1Oc1ccc(Cl)cc1)c1ccncc1 | 0.77
19 | O=C(O)/C(=C/c1sc2cc(OCc3ccc(-c4ccccc4)cc3)c(OCc3ccc(-c4ccccc4)cc3)cc2c1Oc1ccccc1)c1ccncc1 | 0.1
20 | O=C(O)/C(=C/c1sc2cc(OCc3ccc(-c4ccccc4)cc3)c(OCc3ccc(-c4ccccc4)cc3)cc2c1Oc1cccc(F)c1)c1ccncc1 | 0.24
21 | Cc1cc(Oc2c(/C=C(/C(=O)O)c3ccncc3)sc3cc(OCc4ccc(-c5ccccc5)cc4)c(OCc4ccc(-c5ccccc5)cc4)cc23)ccc1Cl | 0.48
22 | O=C(O)/C(=C/c1sc2cc(OCc3ccc(-c4ccccc4)cc3)c(OCc3ccc(-c4ccccc4)cc3)cc2c1Oc1ccc(Oc2ccncc2)cc1)c1ccncc1 | 10.7
23 | O=C(O)/C(=C/c1sc2cc(OCc3ccc(Oc4ccccc4)cc3)c(OCc3ccc(Oc4ccccc4)cc3)cc2c1Oc1ccc(Cl)cc1)c1ccncc1 | 0.1
